Test results reported in PubChem BioAssay (NCI).
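All cell lines were grown in 96-well plates and treated with compound for 48 hours. At the GI50, growth is halved. The concentration for full growth arrest is given as TGI.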

Columns and labels:
Assay in all cases: NCI anticancer screen, dose series, 48 h
[1] = system: UACC-257 melanoma
[2] = system: K-562 leukemia
[3] = system: HCT-15 colon
[4] = system: SF-268 CNS
[5] = system: A498 renal
[6] = system: SW-620 colon
[7] = system: HCC-2998 colon
[8] = system: RXF 393 renal
[9] = system: SF-539 CNS
[10] = system: ACHN renal
[11] = system: SK-OV-3 ovarian
[12] = system: NCI-H522 lung
[13] = system: 786-0 renal
[14] = system: SK-MEL-28 melanoma
[15] = system: SK-MEL-5 melanoma
[16] = system: HS 578T breast
[17] = system: HOP-92 NSCLC
[18] = system: HOP-62 NSCLC
[19] = system: LOX IMVI melanoma
[20] = system: COLO 205 colon
[21] = system: NCI-H460 lung
[22] = system: MDA-MB-231 breast
[23] = system: UO-31 renal
[24] = system: NCI-H226 lung
[25] = system: HL-60(TB) leukemia
[26] = system: RPMI-8226 leukemia
[27] = system: M14 melanoma
[28] = system: OVCAR-5 ovarian
[29] = system: OVCAR-3 ovarian

Compound: Cc1nn(-c2ccccc2)c(-n2ccnc2)c1/C=N/Nc1nc(-c2ccc(Cl)c(Cl)c2)cs1
- GI50 [1]: 17.7 µM
- TGI [1]: 85.3 µM
- GI50 [2]: 2.49 µM
- TGI [2]: > 100 µM
- GI50 [3]: 4.09 µM
- TGI [3]: > 100 µM
- GI50 [4]: 9.37 µM
- TGI [4]: 37.5 µM
- GI50 [5]: 7.98 µM
- TGI [5]: 35.9 µM
- GI50 [6]: 3.36 µM
- TGI [6]: 53.4 µM
- GI50 [7]: 5.1 µM
- TGI [7]: 46.8 µM
- GI50 [8]: 2.29 µM
- TGI [8]: 6.12 µM
- GI50 [9]: 3.66 µM
- TGI [9]: 14.2 µM
- GI50 [10]: 3.97 µM
- TGI [10]: 16.9 µM
- GI50 [11]: 23.5 µM
- TGI [11]: 69.4 µM
- GI50 [12]: 13.4 µM
- TGI [12]: 68.1 µM
- GI50 [13]: 3.21 µM
- TGI [13]: 13.3 µM
- GI50 [14]: 3.89 µM
- TGI [14]: 19.7 µM
- GI50 [15]: 2.54 µM
- TGI [15]: 12.9 µM
- GI50 [16]: 2.95 µM
- TGI [16]: 28.9 µM
- GI50 [17]: 0.214 µM
- TGI [17]: 3.49 µM
- GI50 [18]: 5.92 µM
- TGI [18]: 29.7 µM
- GI50 [19]: 3.01 µM
- TGI [19]: 13.4 µM
- GI50 [20]: 4.46 µM
- TGI [20]: > 100 µM
- GI50 [21]: 3.04 µM
- TGI [21]: 10.7 µM
- GI50 [22]: 2.49 µM
- TGI [22]: 11.2 µM
- GI50 [23]: 2.3 µM
- TGI [23]: 21.8 µM
- GI50 [24]: 1.91 µM
- TGI [24]: 10.8 µM
- GI50 [25]: 6.91 µM
- TGI [25]: > 100 µM
- GI50 [26]: 0.65 µM
- TGI [26]: 8.83 µM
- GI50 [27]: 4.11 µM
- TGI [27]: 30.6 µM
- GI50 [28]: 14.9 µM
- TGI [28]: 57.6 µM
- GI50 [29]: 1.68 µM
